This is an account of results in patent US20090035345A1, “Nuclear Receptors Agonists for Treatment of Atherosclerosis and/or Related Cardiovascular Disease” (ACADEMISCH MEDISCH CENTRUM, BUREAU, priority 2005, published 2009).

Experiment [1] relates to cuff-induced neointima formation in mouse femoral artery. The experiment is described as follows: Femoral artery cuff murine model, 6-MP-eluting cuffs. It is filed as in vivo. Particulars: for cuff-induced neointima formation (intimal area): 4 weeks. An excerpt:
All animal work was approved by AMC institutional regulatory authority and carried out in compliance with guidelines issued by the Dutch government. Wild-type FVB mice (Wt), transgenic mice expressing the full-length Nur77 gene (Nur77), or mice expressing a dominant-negative variant of Nur77 (ΔTA) (the latter two strains under control of the SM22α promoter, which directs the expression of transgenes specific to SMCs), in an FVB background, were used for experiments. Male mice, 10-12 weeks old, were fed a standard chow diet. At the time of surgery, mice were anaesthetized with an intraperitoneal injection of 5 mg/kg Dormicum (Roche, Basel, Switzerland), 0.5 mg/kg Dormitor (Orion, Helsinki, Finland) and 0.05 mg/kg Fentanyl (Janssen, Geel, Belgium). The femoral artery was dissected from its surroundings and loosely sheathed with a non-constrictive cuff. Either a control, empty cuff or a 6-MP eluting cuff (0.5% or 1% w/w) was used (n=6/group).
Wt and Nur77-overexpressing transgenic mice were sacrificed at 28 days after cuff placement, whereas ATA transgenic mice were sacrificed at 14 days after surgery. The thorax was opened and a mild pressure-perfusion (100 mmHg) with 4% (v/v) formaldehyde in 0.9% (w/v) NaCl was performed for 5 min by cardiac puncture. After perfusion, femoral arteries were harvested, fixed overnight in 4% (v/v) formaldehyde, dehydrated and paraffin embedded. Serial cross-sections (5 μm thick) for histological analysis were used throughout the entire length of the cuffed femoral artery. All samples were routinely stained with hematoxylin-phloxine-saffron (HPS). Weigert's elastin staining was used to visualize elastic laminae. Ten equally spaced cross-sections were used in all mice to quantify intimal lesions. Using image analysis software (Leica Qwin, Wetzlar, Germany), total cross sectional medial area was measured between the external and internal elastic lamina; total cross sectional intimal area was measured between the endothelial cell monolayer and the internal elastic lamina.
In vitro experiments were repeated at least twice and are presented as mean±SD and were analyzed by the Student t-test. Animal experiments are presented as mean±SEM and were analyzed using the Mann-Whitney U-test (SPSS 11.5 for Windows). P-values less than 0.05 were regarded as statistically significant.

The target of a further experiment is T1, Nur77 (Homo sapiens, UniProt P22736).
T1 construct: expressed in transfected cells; host or cells: cultured human smooth muscle cells (SMCs), lentivirally transduced
As to the kind of experiment: Nur77 reporter (NurRE) luciferase assay in Nur77-expressing SMCs. It counts as cell-based. How it is done: Cells were electroporated using the Amaxa method(Amaxa, Germany) with nucleofector reagent for SMCs. In each transfection, 0.5−1.0×10^6 cells were used and 3.5 μg Nur77-reporter plasmid with 1.5 μg Renilla luciferase plasmid (containing the thymidine kinase promoter) to correct for cell number and transfection efficiency. The NUR77-reporter plasmid contained the Nur response element (NurRE) of the POMC-promoter in triplicate with the −34/+63 minimal promoter of POMC gene.^19 24 hours after transfection, cells were incubated with 6-MP (Sigma) for 24 hours and luciferase activity was assayed with the Dual luciferase reporter system (Promega, Madison, Wis.).
To investigate whether 6-MP increases Nur77 transcriptional activity in vascular cells, human SMCs were transduced with lentivirus encoding Nur77, resulting in expression in 85-90% of the infected cells and increased Nur77 mRNA levels compared to mock-infected SMCs (data not shown). […] Nur77-overexpressing SMCs were subsequently electroporated with the firefly luciferase reporter construct, containing the palindromic NurRE (Nur77 response element from the POMC-promoter) sequence (TGATATTTn6AAATGCCA) to monitor Nur77 transcriptional activity in combination with the thymidine kinase-renilla luciferase construct as a control for transfection efficiency.

In experiment [2] the test system is SMα-actin, calponin and p27Kip1 protein. The experiment is described as follows: Western blotting of stretched venous SMCs. It counts as cell-based, human. Particulars: 25 μM 6-MP. How it is done:
Sodium dodecyl sulfate-polyacrylamide gel electrophoresis was performed with cell lysates (30 microg per lane) and concentrated culture media (equivalent of 200 microl per lane). Proteins were transferred to nitrocellulose-Protran (Schleicher and Schuell, 's-Hertogenbosch, The Netherlands).
Expression of p27^Kip1 (BD Biosciences, Alphen a/d Rijn, The Netherlands), p21^Cip1 (BD), SM alpha-actin (DAKO), PAI-1 (MAI-12; Biopool, Umea, Sweden), TR3 (M-210; Santa Cruz Biotechnology, Santa Cruz, Calif.), calponin (clone hCP; Sigma) and alpha-tubulin (Cedar Lane, Hornby, Ontario, Canada) was studied, using the indicated antibodies directed against these proteins. Primary antibodies were incubated overnight at 4° C. in 5% Protifar plus (Nutricia, Cuijk, The Netherlands) in TBS. As secondary antibodies, horseradish peroxidase-conjugated goat anti-rabbit (for p27^Kip1 and TR3 detection) or goat anti-mouse (for all others) (BioRad 11 Laboratories Inc., Hercules, Calif.) in a dilution of 1:5000 in TBS were used.
Proteins were visualized by enhanced chemiluminescence detection (Lumi-Light^PLUS; Roche Diagnostics GmbH, Mannheim, Germany). Quantitative analysis was performed by the Lumi-Imager (Boehringer Mannheim, Mannheim, Germany). alpha-Tubulin staining served as a control for loading.

Setting [3] is: Nur77 transgenic mice, 0.5% 6-MP cuff.
Setting [4] is: Nur77 transgenic mice, 1% 6-MP cuff.

T1 sequence (P22736 whole entry): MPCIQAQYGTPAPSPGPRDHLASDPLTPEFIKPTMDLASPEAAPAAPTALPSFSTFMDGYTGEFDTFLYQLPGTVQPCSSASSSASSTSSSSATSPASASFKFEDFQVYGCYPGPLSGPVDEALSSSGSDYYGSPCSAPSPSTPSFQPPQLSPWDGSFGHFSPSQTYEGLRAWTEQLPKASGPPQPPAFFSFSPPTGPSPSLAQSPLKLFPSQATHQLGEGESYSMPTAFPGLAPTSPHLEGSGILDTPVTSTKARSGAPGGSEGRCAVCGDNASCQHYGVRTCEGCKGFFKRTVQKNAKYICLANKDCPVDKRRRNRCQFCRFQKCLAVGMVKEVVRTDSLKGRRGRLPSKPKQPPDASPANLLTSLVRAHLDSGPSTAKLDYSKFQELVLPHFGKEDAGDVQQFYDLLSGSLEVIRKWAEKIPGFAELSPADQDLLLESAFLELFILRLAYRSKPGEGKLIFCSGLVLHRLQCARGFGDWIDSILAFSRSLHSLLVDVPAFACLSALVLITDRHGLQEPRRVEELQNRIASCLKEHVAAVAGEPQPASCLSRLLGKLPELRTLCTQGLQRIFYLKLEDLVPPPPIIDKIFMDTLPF

`Sc1ncnc2nc[nH]c12` [6-MP, 6-mercaptopurine]: the intima/media ratio in experiment [1] (setting [3]) is 0.47±0.05; in experiment [1] (setting [4]), 0.30±0.06; in experiment [1] (Wt mice, 0.5% 6-MP cuff) it was 0.75±0.05; in experiment [1] (Wt mice, 1% 6-MP cuff), 0.51±0.03. The “cuff-induced neointima formation (intimal area)” value was “substantially reduced” in experiment [1] (setting [3]); “significant inhibition” in experiment [1] (setting [4]); “did not show a decrease” in experiment [1] (Wt mice, 0.5% 6-MP cuff); “significant inhibition” in experiment [1] (Wt mice, 1% 6-MP cuff). The “medial areas of the cuffed femoral arteries” value in experiment [1] (Wt and Nur77 transgenic mice) is “No changes”. Also, the “neointima formation (intimal area)” value was “no significant effect” in experiment [1] (ΔTA transgenic mice, 0.5% 6-MP cuff, 2 weeks) and “no significant effect” in experiment [1] (ΔTA transgenic mice, 1% 6-MP cuff, 2 weeks). In addition, in experiment [1] (ΔTA transgenic mice, 2 weeks), the media thickness entry is listed as “did not change”. In addition, the “increase in Nur77 activity (luciferase)” value at Nur77 (50 μM, 24 hours) came out at 10 fold. Moreover, the Nur77 transcriptional activity entry at Nur77 (24 hours in the presence of 6-MP) is listed as “enhances Nur77 activity”. In experiment [2], the “SMα-actin and calponin as well as p27Kip1 protein expression” value is given as “increases”.
